From patent publication US10246466B2, “Diaryl macrocycles as modulators of protein kinases” (TP THERAPEUTICS, INC., priority 2014, dated 2019)

Tests used:
Assay type in all cases: cell-based
[1] = test system: T cell lymphoma Karpas-299 cell line (harboring endogenous NPM-ALK fusion gene); assay: Karpas-299 cell proliferation assay (CellTiter-Glo); conditions: Homo sapiens, 72 hours incubation, read-out: Karpas 299 cell proli. IC50
[2] = test system: Essential thrombocythemia cell line SET-2 cells (harboring endogenous JAK2 point mutation); assay: SET-2 cell proliferation assay (CellTiter-Glo); conditions: Homo sapiens, 72 hours incubation, read-out: SET2 cell proli. IC50
[3] = test system: Colorectal cell line KM12 (harboring endogenous TPM3-TRKA fusion gene); assay: KM12 cell proliferation assay (CellTiter-Glo); conditions: Homo sapiens, 72 hours incubation, read-out: KM 12 cell prolif. IC50
Experimental: (§1) Colorectal cell lines KM 12 (harboring endogenous TPM3-TRKA fusion gene) cells were cultured in DMEM medium, supplemented with 10% fetal bovine serum and 100 U/mL of penicillin/streptomycin. 5000 cells were seeded in 384 well white plate for 24 hours before compounds treatment. Cell proliferation was measured using CellTiter-Glo luciferase-based ATP detection assay (Promega) following the manufactures's protocol after 72 hours incubation. IC50 determinations were performed using GraphPad Prism software (GraphPad, Inc., San Diego, Calif.).
as §1, with “Alternatively: Colorectal” for “Colorectal”, “line KM12” for “lines KM 12”, “penicillin/streptomycin. […]” for “penicillin/streptomycin.”

IC50 [1] [µM]	SMILES	IC50 [2] [µM]	IC50 [3] [µM]
4.1	CCCN1Cc2cc(F)ccc2OCCNC(=O)c2cnn3ccc1nc23 [Example 44, 11-fluoro-14-propyl-6,7,13,14-tetrahydro-1,15-ethenopyrazolo[4,3-f][1,4,8,10]benzoxatriazacyclotridecin-4(5H)-one]	2.03	0.0099
6	CC1COc2ccc(F)cc2CN(C)c2ccn3ncc(c3n2)C(=O)N1 (stereo not drawn) [Example 48, 11-fluoro-6,14-dimethyl-6,7,13,14-tetrahydro-1,15-ethenopyrazolo[4,3-f][1,4,8,10]benzoxatriazacyclotridecin-4(5H)-one]	6	0.062
3.9	CN1Cc2cc(F)cnc2OCCNC(=O)c2cnn3ccc1nc23 [Example 61, 11-fluoro-14-methyl-6,7,13,14-tetrahydro-1,15-ethenopyrazolo[4,3-f]pyrido[3,2-1][1,4,8,10]oxatriazacyclotridecin-4(5H)-one]	3.75	0.0006
3.8	C[C@H]1Nc2ccn3ncc(c3n2)C(=O)NCCCOc2ccc(F)cc21 [Example 76-1, (14R)-12-fluoro-14-methyl-5,6,7,8,14,15-hexahydro-4H-1,16-ethenopyrazolo[4,3-g][1,5,9,11]benzoxatriazacyclotetradecin-4-one]	1	0.0058

The next lines start with the compound.

SMILES	IC50 [1] [µM]	IC50 [2] [µM]	IC50 [3] [µM]
O=C1NCCOc2ccc(F)cc2CN(C2CC2)c2ccn3ncc1c3n2 [Example 46, 14-cyclopropyl-11-fluoro-6,7,13,14-tetrahydro-1,15-ethenopyrazolo[4,3-f][1,4,8,10]benzoxatriazacyclotridecin-4(5H)-one]	7.1	7	0.0015
O=C1NCCOc2ccc(F)cc2CN(CCO)c2ccn3ncc1c3n2 [Example 47, 11-fluoro-14-(2-hydroxyethyl)-6,7,13,14-tetrahydro-1,15-ethenopyrazolo[4,3-f][1,4,8,10]benzoxatriazacyclotridecin-4(5H)-one]	> 10	> 10	0.031
COC(=O)C1Nc2ccn3ncc(c3n2)C(=O)NCCOc2ccc(F)cc21 (stereo not drawn) [Example 59, methyl 11-fluoro-4-oxo-4,5,6,7,13,14-hexahydro-1,15-ethenopyrazolo[4,3-f][1,4,8,10]benzoxatriazacyclotridecine-13-carboxylate]	–	–	> 1
NC(=O)C1Nc2ccn3ncc(c3n2)C(=O)NCCOc2ccc(F)cc21 (stereo not drawn) [Example 60, 11-fluoro-4-oxo-4,5,6,7,13,14-hexahydro-1,15-ethenopyrazolo[4,3-f][1,4,8,10]benzoxatriazacyclotridecine-13-carboxamide]	–	–	> 1
CC(C)N1Cc2cc(F)cnc2OCCNC(=O)c2cnn3ccc1nc23 [Example 62, 11-fluoro-14-(propan-2-yl)-6,7,13,14-tetrahydro-1,15-ethenopyrazolo[4,3-f]pyrido[3,2-1][1,4,8,10]oxatriazacyclotridecin-4(5H)-one]	4	–	0.0009
O=C1NCCOc2ccc(F)cc2C(C2CC2)Nc2ccn3ncc1c3n2 (stereo not drawn) [Example 66, 13-cyclopropyl-11-fluoro-6,7,13,14-tetrahydro-1,15-ethenopyrazolo[4,3-f][1,4,8,10]benzoxatriazacyclotridecin-4(5H)-one]	1.9	1.54	0.0175
CC(C)C1Nc2ccn3ncc(c3n2)C(=O)NCCOc2ccc(F)cc21 (stereo not drawn) [Example 67, 11-fluoro-13-(propan-2-yl)-6,7,13,14-tetrahydro-1,15-ethenopyrazolo[4,3-f][1,4,8,10]benzoxatriazacyclotridecin-4(5H)-one]	1.2	1.23	0.0028
O=C1NCCOc2ccc(F)cc2C(C2CCC2)Nc2ccn3ncc1c3n2 (stereo not drawn) [Example 86, 13-cyclobutyl-11-fluoro-6,7,13,14-tetrahydro-1,15-ethenopyrazolo[4,3-f][1,4,8,10]benzoxatriazacyclotridecin-4(5H)-one]	1	2	–
